“Also recorded” adds a separate entry of the source. Like-named read-outs stand apart in the source and are kept apart here.
How the values were obtained:
DNMT1 [1] = target: T1, DNMT1 (Homo sapiens, UniProt P26358); experiment: in vitro DNMT1 activity assay; type: biochemical
Excerpt: FIG. 9A is a schematic of an exemplary in vitro DNMT activity assay.
(§1) The assays use recombinant Human DNMT1 (FIG. 5A) or nuclear extracts prepared from cells treated with XB05 (BX11) or XB05a (BX12) (FIG. 5B).
Target sequence in this assay (P26358 whole entry): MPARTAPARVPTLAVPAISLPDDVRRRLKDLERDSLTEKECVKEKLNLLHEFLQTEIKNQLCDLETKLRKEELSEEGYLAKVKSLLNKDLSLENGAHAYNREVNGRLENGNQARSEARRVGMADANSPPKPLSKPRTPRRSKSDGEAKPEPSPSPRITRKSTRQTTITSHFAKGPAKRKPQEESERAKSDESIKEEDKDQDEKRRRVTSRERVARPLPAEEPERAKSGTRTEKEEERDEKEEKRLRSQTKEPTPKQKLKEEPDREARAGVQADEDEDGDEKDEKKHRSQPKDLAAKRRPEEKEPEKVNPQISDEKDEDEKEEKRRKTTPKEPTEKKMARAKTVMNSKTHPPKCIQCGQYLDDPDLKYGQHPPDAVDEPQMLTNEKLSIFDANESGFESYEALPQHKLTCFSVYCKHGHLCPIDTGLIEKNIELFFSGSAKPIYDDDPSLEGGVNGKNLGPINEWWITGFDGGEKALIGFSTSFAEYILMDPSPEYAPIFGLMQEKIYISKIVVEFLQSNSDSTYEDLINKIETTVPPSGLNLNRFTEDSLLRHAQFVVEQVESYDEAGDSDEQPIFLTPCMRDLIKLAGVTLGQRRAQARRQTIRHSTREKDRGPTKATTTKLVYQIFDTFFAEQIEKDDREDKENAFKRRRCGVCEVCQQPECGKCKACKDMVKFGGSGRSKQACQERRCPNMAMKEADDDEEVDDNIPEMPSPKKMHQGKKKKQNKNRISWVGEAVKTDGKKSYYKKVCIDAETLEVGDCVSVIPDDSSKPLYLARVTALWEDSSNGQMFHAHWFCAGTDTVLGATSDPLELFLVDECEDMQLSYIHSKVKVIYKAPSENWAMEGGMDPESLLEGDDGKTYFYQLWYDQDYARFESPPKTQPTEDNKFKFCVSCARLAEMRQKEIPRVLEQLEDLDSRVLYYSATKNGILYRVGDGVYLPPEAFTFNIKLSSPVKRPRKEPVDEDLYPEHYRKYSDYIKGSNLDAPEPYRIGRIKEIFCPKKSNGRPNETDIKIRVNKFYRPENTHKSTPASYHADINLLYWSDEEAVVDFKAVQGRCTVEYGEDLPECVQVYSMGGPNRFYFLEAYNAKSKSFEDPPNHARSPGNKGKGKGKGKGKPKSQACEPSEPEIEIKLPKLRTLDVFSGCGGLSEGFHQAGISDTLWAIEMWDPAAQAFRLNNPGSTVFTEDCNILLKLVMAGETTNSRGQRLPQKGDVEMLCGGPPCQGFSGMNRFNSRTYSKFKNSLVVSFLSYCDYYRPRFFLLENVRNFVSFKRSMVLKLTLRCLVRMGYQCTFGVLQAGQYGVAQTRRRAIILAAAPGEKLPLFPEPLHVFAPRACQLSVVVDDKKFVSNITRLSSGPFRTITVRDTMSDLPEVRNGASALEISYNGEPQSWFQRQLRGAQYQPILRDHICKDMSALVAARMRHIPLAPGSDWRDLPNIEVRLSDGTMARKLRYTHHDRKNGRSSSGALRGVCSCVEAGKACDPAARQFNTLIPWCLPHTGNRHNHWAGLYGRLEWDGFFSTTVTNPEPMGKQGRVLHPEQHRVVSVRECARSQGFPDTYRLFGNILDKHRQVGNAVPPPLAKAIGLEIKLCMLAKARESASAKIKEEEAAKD

Colo-205 xenografts = Colo-205 xenografts in nude mice; type: in vivo; settings: for non-specific toxicities as judged by body weight: 25 mg/kg daily for 21 days i.v., FIG. 7C; for in vivo antitumor efficacy: 25 mg/kg/day i.v. for 21 days, FIGS. 7A and 7B
A549 xenografts = experiment: A549 lung cancer xenograft model
Excerpt: (§2) U.S. Patent Publication No. 2008/0188570 (herein incorporated by reference in its entirety) further discloses more than 50 analogs of XB05 (BX11). […] In some embodiments, the DNMT1 inhibitor is XB05a (BX12).

aqueous stability = type: physicochemical; settings: addressed by cremaphor/ethanol/NaCl formulation
Excerpt: as §2

[2] = anti-proliferative assays; type: cell-based
Excerpt: as §2

breast cancer cell lines = experiment: NCI60 data, proliferation of breast cancer cell lines; type: cell-based, human; settings: all breast cancer cell lines, FIG. 4A, read-out: GI50 (cytostatic effects)
Method: (§3) FIG. 4A is NCI60 data showing the effect of XB05 (BX11) on proliferation of various breast cancer cell lines. All cells lines are sensitive to XB05 (BX11) cytostatic effects (GI50<100 nM), whereas a few are especially susceptible to cytotoxic effects (e.g., see 1 μM XB05 (BX11) data points).
A variety of different breast cancer cell lines were treated with 1 μM BX11, and the cytotoxic effect of 1 μM BX11 was determined. The cytotoxicity data for each breast cancer cell line was correlated with the SOX9 level present in each cell line prior to treatment.
(§4) BX11 (XB05) has potent antiproliferative and cytotoxic activity on a variety of breast cancer cell types, with some cell types having GI50 values less than or equal to 10 μM. There were several cell lines that seemed particularly sensitive to the cytotoxic effects of BX11 (BX05). […] The MDA-MB-231 cell line is derived from a triple negative breast cancer (TNBC) and MDA-MB-435 was originally described as being derived from a TNBC, although its origin is now uncertain (it is unquestionably derived from the same source as the M14 melanoma cell line and many believe it is a melanoma, although some argue that both cell lines are derived from a breast carcinoma). […] This latter assay is often used to assess activity against the subpopulation of stem-like cancer cells with enhanced tumor-initiating capacity.

MDA-MB-231 = experiment: NCI60 breast cancer panel, cytotoxic effect; type: cell-based, human; settings: 1 μM BX11, FIG. 4A
Method: as §3, §4

MDA-MB-435 = experiment: NCI60 breast cancer panel, cytotoxic effect; type: cell-based, human; settings: 1 μM BX11, FIG. 4A
Method: as §3, §4

[3] = system: MDA-MB-231 breast cancer cells; experiment: soft agar colony formation assay; type: cell-based; settings: stained 21 days after plating
Method: FIG. 4B are data from soft agar colony formation assays for MDA-MB-231 breast cancer cells. The cells were stained with crystal violet 21 days after plating.
FIG. 4C is a graph of the data from the soft agar colony formation assays for MDA-MB-231 breast cancer cells. The data shown are the mean±standard error (n=3).
as §4

[4] = system: MDA-MB-231 breast cancer cells; experiment: tumorsphere formation assay; type: cell-based; settings: day 12 after plating
Method: FIG. 4D are data from tumorsphere formation assays for MDA-MB-231 breast cancer cells on day 12 after plating. The data shown are representative images from three separate experiments.
FIG. 4E is a graph of the data from the tumorsphere formation assays for MDA-MB-231 breast cancer cells on day 12 after plating.
as §4

[5] = system: several cancer cell lines, including prostate cancer; experiment: activity against cancer cell lines (Table 2); type: cell-based
HOP92 cells = experiment: SOX9 siRNA knockdown, cell number and viability; type: cell-based; settings: 60 nM siRNA 24 hours, then XB05 48 hours
Method: In a second set of experiments, HOP92 cells were transfected for 24 hours with 60 nM siRNA against SOX9, control siRNA, or no RNA (mock). Knockdown of SOX9 was confirmed by Western blots (WB). Cells were then treated with XB05 (BX11) as indicated. After 48 hours, the cell number and viability for each sample was determined using an automated cell counter.

HCT116 cells [6] = experiment: clonogenic survival and MTT proliferation assays; type: cell-based; settings: colon cancer, positive control
Excerpt: (§5) (3a) results from the NCI 60 cell screen showing a good correlation between the levels of expression of SOX9 and cell death induced by XB05 (BX11); (3b) Western blot showing expression of SOX9 in sensitive cell lines; (3c) clonogenic survival assay in cells sensitive or resistant to XB05 (BX11); (3d) MTT proliferation assays in cells sensitive or resistant to XB05 (BX11).
(§6) FIG. 3B are Western blots (WB) confirming expression of Biomarker X (SOX9) protein in the sensitive cell lines. […] Where indicated, HCT116 cells (colon cancer, sensitive to XB05 (BX11)) and LLC cells (murine lung carcinoma, resistant to XB05 (BX11)) are shown as positive and negative controls, respectively. (SOX9 levels were not assayed in LLC cells because they are of mouse origin).

LLC cells = experiment: clonogenic survival and MTT proliferation assays; type: cell-based; settings: murine lung carcinoma, negative control
Excerpt: as §5, §6

A549 lung cancer cells = experiment: sensitivity of A549 cells to XB05; type: cell-based
Excerpt: The present invention is based on the discovery that SOX9 expression in cancer cells is correlated with sensitivity to cell killing by XB05 (BX11). The COMPARE algorithm (Andrianasolo et al., J. Nat. Prod. 69:576-579, 2006) was used to search for correlations between response to XB05 (BX11) and gene expression using the NCI 60 cell line screen for XB05 (BX11) and the publicly available microarray studies of the NCI 60 panel. […] High levels of SOX9 expression were associated with high sensitivity to XB05 (BX11) across the 60 cell lines, as shown in FIG. 3. […] The experiments have been repeated multiple times and differences are statistically significant (p<0.05).

[7] = system: GSTP1 promoter from LNCaP cells; experiment: methylation specific PCR of GSTP1 promoter; type: cell-based; settings: 100 nm XB05 (BX11)
[8] = system: DU145 and LNCaP prostate cancer cells; experiment: RT-PCR mRNA expression of silenced tumor suppressor genes; type: cell-based
[9] = system: MDA-MB-231 breast cancer cells; experiment: RT-PCR and Western blotting of methylated (repressed) genes; type: cell-based; settings: 1 μM BX11 (XB05), 72 hours, control genes GAPDH and β-actin unchanged
Method: Experiments described above were performed to test the effect of BX11 (XB05) on DNMT1 activity. The expression of a number of methylated (repressed) genes in MDA-MB-231 breast cancer cells was further determined using both RT-PCR and Western blotting following treatment with vehicle (control), 1 μM BX11 (XB05), or 10 μM 5-azacytidine (positive control).

global DNA methylation = experiment: global DNA methylation; type: cell-based
Excerpt: XB05 (BX11) has activities that slightly differ from other agents in this class of compounds. This is illustrated not only by the NCI 60 data, but also by the effects of XB05 (BX11) and 5-aza on cancer cells and tumor xenografts (FIG. 7). […] XB05 (BX11) and 5-aza may inhibit DNMT activity by different mechanisms.

endothelial cell (HUVEC) = experiment: transwell migration and tube formation assay; type: cell-based; settings: 800 nM XB05 (BX11)
HCT116 cells [10] = experiment: induction of senescence; type: cell-based; settings: 96 h with 100 nM XB05 (BX11)
HCT116 xenografts = experiment: HCT116 xenografts; settings: in vivo
DNMT1 [11] = target: T1, DNMT1; experiment: DNMT1 activity in nuclear extracts from treated cells; type: cell-based; parameters: endogenous in cells; settings: FIG. 5B
Excerpt: as §1
Target sequence in this assay (P26358 whole entry, species assumed): as the sequence (P26358 whole entry) above

CC/C=C\CCC(O)C#CC(F)(F)Br (centres unmarked) [XB05a (BX12)]
activity in DNMT1 inhibition assays compared to XB05 (BX11) (DNMT1 [1]): equivalent or better activity | non-specific toxicities as judged by body weight (Colo-205 xenografts): no evidence of any severe non-specific toxicities | in vivo antitumor efficacy (Colo-205 xenografts): in vivo antitumor efficacy | antitumor activity alone compared with 5-aza alone (A549 xenografts; 5-aza at 6 mg/kg): more active | myelotoxicity (A549 xenografts; data not shown): no significant myelotoxicity | toxicity (body weight loss) compared with 5-aza or cisplatin (A549 xenografts; mouse, in vivo): much less toxicity | aqueous stability (aqueous stability): poor | activity in anti-proliferative assays compared to XB05 (BX11) [2]: equivalent or better activity

CCCCCC(O)C#CC(F)(F)Br (centres unmarked) [XB05 (BX11)]
GI50 (breast cancer cell lines): < 100 nM | cell death (MDA-MB-231): significant cell death | cell death (MDA-MB-435): significant cell death | colony formation in soft agar [3]: inhibit | tumorsphere growth [4]: inhibit | potent activity against several cancer cell lines [5]: Discovered by chance to have potent activity (<100 nM) against | anti-proliferative effects after knockdown of SOX9 using a specific siRNA (HOP92 cells): completely blocked | sensitivity to XB05 (BX11) (HCT116 cells [6]): sensitive | sensitivity to XB05 (BX11) (LLC cells): resistant | sensitivity to XB05 (BX11) (A549 lung cancer cells): modest sensitivity | DNMT1 activity (DNMT1 [1]; recombinant human DNMT1, FIG. 5A): inhibitory effects | DNMT activity (DNMT1 [1]; summary statement, assay form not specified): Inhibits | promoter methylation [7]: inhibits | reactivation of silenced tumor suppressor genes [8]: reactivates | reactivation of silenced tumor suppressor genes ([8]; listed as XB05): reactivates | expression of genes commonly silenced by methylation [9]: re-expressed | expression of genes commonly silenced by methylation ([9]; listed as BX11 (XB05)): specific reactivation | effect on global DNA methylation (global DNA methylation): no obvious effect | effect on global DNA methylation (global DNA methylation; listed as XB05): including no effect on global DNA methylation. | endothelial cell function (transwell migration, tube formation) (endothelial cell (HUVEC)): inhibition; also recorded: inhibitory effects | toxicity to HUVECs (endothelial cell (HUVEC)): non-toxic | endothelial cell function (transwell migration, tube formation) (endothelial cell (HUVEC); listed as XB05): Inhibits endothelial cell activity in in vitro assays. | senescence in cancer cells (HCT116 cells [10]): induction of senescence; also recorded: induce cellular senescence | senescence in cancer cells (HCT116 cells [10]; listed as XB05): Induces senescence in cancer cells. | tumor necrosis ("hollow" tumors) (HCT116 xenografts): central tumor necrosis | tumor growth delay, alone (A549 xenografts; i.v. 25 mg/kg/day x 21, monotherapy): significant tumor growth delay | tumor growth delay, in combination with cisplatin (A549 xenografts; i.v. 25 mg/kg/day x 21 plus cisplatin 4 x 4 mg/kg every 3 days): significant tumor growth delay | DNMT1 activity (DNMT1 [11]): inhibitory effects

Nc1ncn([C@@H]2O[C@H](CO)[C@@H](O)[C@H]2O)c(=O)n1 [5-aza, 5-azacytidine, reference compound]
effect on global DNA methylation (global DNA methylation): causes global DNA methylation | activity relative to XB05 (BX11) (global DNA methylation; 5-aza used at higher concentrations than XB05 (BX11)): less active | maximally tolerated dose (A549 xenografts; mouse, in vivo): 6 mg/kg

CCCCCC(C#CC(F)(F)Br)OC(C)=O (racemic) [XB05b (BX17)]
non-specific toxicities as judged by body weight (Colo-205 xenografts): no evidence of any severe non-specific toxicities | in vivo antitumor efficacy (Colo-205 xenografts): in vivo antitumor efficacy

— patent publication US9383364B2, “Predictive marker of DNMT1 inhibitor therapeutic efficacy and methods of using the marker” (priority 2011, dated 2016)
